Measurements reported in PubChem BioAssay AID1963421 (Molecular Pharmacology Branch, DTP, NCI, 2024).

Tested on: 519858-162-T-J1-PDC complex spheroid growth, % test/control
Assay: Anticancer human tumor 519858-162-T-J1-PDC patient-derived colon adenocarcinoma cell line growth inhibition [Asc]
Settings: for IC50: curve of first compound; for viability, T/C: stronger effect = lower value
Method in brief: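 Concentration series start at each agent's clinical Cmax, or at 10 microM when none is established, and drop in half-log steps; agents are applied alone or together to complex spheroids built with HUVEC and hMSC.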

[1] = second compound 0.0316 µM, first compound 0.00316 µM
[2] = second compound 0.0316 µM, first compound 0.01 µM
[3] = second compound 0.0316 µM, first compound 0.0316 µM
[4] = second compound 0.0316 µM, first compound 0.1 µM
[5] = second compound 0.1 µM, first compound 0.00316 µM
[6] = second compound 0.1 µM, first compound 0.01 µM
[7] = second compound 0.1 µM, first compound 0.0316 µM
[8] = second compound 0.1 µM, first compound 0.1 µM
[9] = second compound 0.316 µM, first compound 0.00316 µM
[10] = second compound 0.316 µM, first compound 0.01 µM
[11] = second compound 0.316 µM, first compound 0.0316 µM
[12] = second compound 0.316 µM, first compound 0.1 µM
[13] = second compound 1 µM, first compound 0.00316 µM
[14] = second compound 1 µM, first compound 0.01 µM
[15] = second compound 1 µM, first compound 0.0316 µM
[16] = second compound 1 µM, first compound 0.1 µM
[17] = second compound 3.16 µM, first compound 0.00316 µM
[18] = second compound 3.16 µM, first compound 0.01 µM
[19] = second compound 3.16 µM, first compound 0.0316 µM
[20] = second compound 3.16 µM, first compound 0.1 µM
[21] = second compound 10 µM, first compound 0.00316 µM
[22] = second compound 10 µM, first compound 0.01 µM
[23] = second compound 10 µM, first compound 0.0316 µM
[24] = second compound 10 µM, first compound 0.1 µM
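Also: seven day drug exposure begun three days after spheroid seeding.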
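For viability, T/C in this document: 100% = DMSO vehicle wells and lower values mean less viable spheroid.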

Structure (SMILES): CCN1CCN(Cc2ccc(Nc3ncc(F)c(-c4cc(F)c5nc(C)n(C(C)C)c5c4)n3)nc2)CC1 + Cc1c(S(C)(=O)=O)c(-c2cc(F)cc(N3CCN(c4ccc(NS(=O)(=O)c5ccc(NC(CCN6CCC(C(=O)OCCCP(=O)(O)O)CC6)CSc6ccccc6)c(S(=O)(=O)C(F)(F)F)c5)cc4)CC3)c2)c(-c2ccc(Cl)cc2)n1C(C)C
- IC50 (second compound 0.0316 µM): > 1000 nM
- IC50 (second compound 0.1 µM): > 1000 nM
- IC50 (second compound 0.316 µM): > 1000 nM
- IC50 (second compound 1 µM): > 1000 nM
- IC50 (second compound 3.16 µM): > 1000 nM
- IC50 (second compound 10 µM): > 1000 nM
- viability, T/C [1]: 124%
- viability, T/C [2]: 106%
- viability, T/C [3]: 62.9%
- viability, T/C [4]: 92%
- viability, T/C (second compound 0.0316 µM, first compound 0.316 µM): 84.8%
- viability, T/C (second compound 0.0316 µM, first compound 1 µM): 72.3%
- viability, T/C [5]: 109%
- viability, T/C [6]: 95.8%
- viability, T/C [7]: 89.2%
- viability, T/C [8]: 86.3%
- viability, T/C (second compound 0.1 µM, first compound 0.316 µM): 79.5%
- viability, T/C (second compound 0.1 µM, first compound 1 µM): 112%
- viability, T/C [9]: 119%
- viability, T/C [10]: 109%
- viability, T/C [11]: 98.3%
- viability, T/C [12]: 60.5%
- viability, T/C (second compound 0.316 µM, first compound 0.316 µM): 95.6%
- viability, T/C (second compound 0.316 µM, first compound 1 µM): 69.7%
- viability, T/C [13]: 87.4%
- viability, T/C [14]: 76%
- viability, T/C [15]: 62.6%
- viability, T/C [16]: 79%
- viability, T/C (second compound 1 µM, first compound 0.316 µM): 75.2%
- viability, T/C (second compound 1 µM, first compound 1 µM): 56.4%
- viability, T/C [17]: 90.5%
- viability, T/C [18]: 68.6%
- viability, T/C [19]: 101%
- viability, T/C [20]: 73.7%
- viability, T/C (second compound 3.16 µM, first compound 0.316 µM): 67%
- viability, T/C (second compound 3.16 µM, first compound 1 µM): 57.2%
- viability, T/C [21]: 77.7%
- viability, T/C [22]: 61.1%
- viability, T/C [23]: 62.6%
- viability, T/C [24]: 72.8%
- viability, T/C (second compound 10 µM, first compound 0.316 µM): 63.3%
- viability, T/C (second compound 10 µM, first compound 1 µM): 68%

Structure (SMILES): Cn1ncnc1[C@H]1c2n[nH]c(=O)c3cc(F)cc(c23)N[C@@H]1c1ccc(F)cc1 + Cc1c(S(C)(=O)=O)c(-c2cc(F)cc(N3CCN(c4ccc(NS(=O)(=O)c5ccc(NC(CCN6CCC(C(=O)OCCCP(=O)(O)O)CC6)CSc6ccccc6)c(S(=O)(=O)C(F)(F)F)c5)cc4)CC3)c2)c(-c2ccc(Cl)cc2)n1C(C)C
- IC50 (second compound 0.0316 µM): > 100 nM
- IC50 (second compound 0.1 µM): > 100 nM
- IC50 (second compound 0.316 µM): > 100 nM
- IC50 (second compound 1 µM): > 100 nM
- IC50 (second compound 3.16 µM): > 100 nM
- IC50 (second compound 10 µM): 100 nM
- viability, T/C (second compound 0.0316 µM, first compound 0.000316 µM): 119%
- viability, T/C (second compound 0.0316 µM, first compound 0.001 µM): 120%
- viability, T/C [1]: 73%
- viability, T/C [2]: 100%
- viability, T/C [3]: 69%
- viability, T/C [4]: 95.4%
- viability, T/C (second compound 0.1 µM, first compound 0.000316 µM): 121%
- viability, T/C (second compound 0.1 µM, first compound 0.001 µM): 78.9%
- viability, T/C [5]: 85.8%
- viability, T/C [6]: 123%
- viability, T/C [7]: 76.6%
- viability, T/C [8]: 54.9%
- viability, T/C (second compound 0.316 µM, first compound 0.000316 µM): 115%
- viability, T/C (second compound 0.316 µM, first compound 0.001 µM): 101%
- viability, T/C [9]: 61.3%
- viability, T/C [10]: 92.9%
- viability, T/C [11]: 83.7%
- viability, T/C [12]: 89.4%
- viability, T/C (second compound 1 µM, first compound 0.000316 µM): 88.8%
- viability, T/C (second compound 1 µM, first compound 0.001 µM): 76.5%
- viability, T/C [13]: 131%
- viability, T/C [14]: 60.8%
- viability, T/C [15]: 74.6%
- viability, T/C [16]: 90.5%
- viability, T/C (second compound 3.16 µM, first compound 0.000316 µM): 104%
- viability, T/C (second compound 3.16 µM, first compound 0.001 µM): 87.1%
- viability, T/C [17]: 83.7%
- viability, T/C [18]: 75.2%
- viability, T/C [19]: 113%
- viability, T/C [20]: 79.1%
- viability, T/C (second compound 10 µM, first compound 0.000316 µM): 69.5%
- viability, T/C (second compound 10 µM, first compound 0.001 µM): 95.7%
- viability, T/C [21]: 63.2%
- viability, T/C [22]: 49.6%
- viability, T/C [23]: 61.3%
- viability, T/C [24]: 61.4%
